{"source": "patent US11426381B2", "about": "“Lipoic acid choline ester compositions and methods of use” (NOVARTIS AG, priority 2014, dated 2022)", "key": {"lens protein disulfides": {"test_system": "lens protein disulfides", "assay": "In vitro mouse lens protein disulfide analysis", "conditions": "eight month old mouse lenses, 12 hours incubation", "description": "(§1) In vitro test: Eight month old mouse lenses (C57BL/6J) were incubated for 12 hours in medium supplemented with selected levels (0-500 μM) of lipoic acid (LA). Lens elasticity was measured using the coverslip method known. After elasticity measurements, lenses were homogenized in a dissociation medium containing alkylating agent 1 (free SH modification). The homogenate was filtered and the rinsed, resuspended, retentate was treated with reducing agent (TCEP) and alkylating agent 2 (S-S SHs modified). After filtration and rinses, the levels of alkylated SH groups in retentate 2 was determined. Bovine serum albumin was the positive control for the sulfhydryl analysis."}, "mouse lenses (C57BL/6J)": {"test_system": "mouse lenses (C57BL/6J)", "assay": "In vitro mouse lens elasticity (coverslip method)", "conditions": "eight month old mouse lenses, 12 hours incubation", "description": "as §1"}, "[1]": {"assay": "Stability of LACE chloride in propylene glycol (HPLC potency)", "assay_type": "physicochemical", "conditions": "1.0% in propylene glycol", "description": "The HPLC method to analyze LACE Chloride used a Phenomenex Luna CN column with a 5 um particle size, 100 A pore size, 2.0 mm inner diameter, and 50 mm length (PN: 00B-4255-B0). The mobile phase consisted of 50% of 0.1 M Sodium Acetate and 50% Acetonitrile. The flow rate was 1.0 mL/min, the detection wavelength was 225 nm, the column temperature was 40° C., the injection volume was 20 uL, and the run time was 50 minutes. The working LACE chloride concentration was 0.1 mg/mL and plastic HPLC vials were used for the analysis.\nA solution of LACE chloride in propylene glycol was prepared to determine its stability. A solution of 1.0% LACE chloride in propylene glycol was prepared and stored at −20° C. (ambient RH), 5° C. (ambient RH), and 25° C. (40% RH). The solutions were tested for LACE chloride potency after storage for 3 months.\nIn these samples, HPLC analysis (using the method described in Example 2) a peak with relative retention time (RRT) of approximately 0.73. […] No additional peaks are detected. The peak at 0.73 RRT is not detected in the LACE chloride solutions in citrate buffer."}, "[2]": {"test_system": "New Zealand white rabbits", "assay": "Draize test for eye drop ocular safety", "assay_type": "in vivo, rabbit", "conditions": "EV06 3%-5%", "description": "Safety of the EV06 was evaluated by the Draize test to evaluate its use at concentrations as high as 5%. The Draize Test is an acute toxicity test devised in 1944 by Food and Drug Administration (FDA) toxicologists John H. Draize and Jacob M. Spines. Initially used for testing cosmetics, the procedure involves applying 0.5 mL or 0.5 g of a test substance to the eye or skin of a restrained, conscious animal, and then leaving it for set amount of time before rinsing it out and recording its effects. Corneal, iris, and conjunctival responses were evaluated using the scale described by Draize et al., J. Pharmacol. & Exp. Therapeutics, 82:377-390 (1944)]. Because of the importance of the cornea to vision, 73% of the Draize score is based on corneal damage. A normal score was 0, increasing amounts of damage result in a higher score, with the maximum score possible being 110. A Draize score was computed at each observation time by averaging the total scores of all rabbits tested. Observations were made and recorded 24, 48, and 72 hours after treatment.\nThis test consists of instilling 30 to 50 μL of the product into one eye of 6 New Zealand white rabbits and monitoring to observe any abnormal clinical signs such as redness of conjunctiva, swelling, or increased blinking which may indicate irritation."}, "[3]": {"assay": "Stability of LACE in neat glycerol", "assay_type": "physicochemical", "conditions": "mixed in neat glycerol, 80° C. for 8 hours", "description": "Lipoic acid choline ester was mixed in neat glycerol (no water) with brief heating to 80° C. for 8 hours. High concentrations of lipoic acid choline ester in a final clear solution were found. The final clear solution is stable."}, "[4]": {"assay": "Toxicokinetics (plasma levels) in GLP rabbit study", "assay_type": "in vivo", "conditions": "rabbits; topical DIOPTIN three times daily", "description": "Screening studies were conducted to determine the highest tolerated concentration when applied topically to rabbit eyes, in conjunction with bioanalysis of corneal, aqueous humor, and lens concentrations of EV06 and its metabolites. In a GLP rabbit study, animals were treated with topical 0, 1, 3 or 4% DIOPTIN™ (lipoic acid choline ester) solution three times daily for 90 consecutive days. Slit-lamp exams and fundoscopy were performed at pre-dose baseline and after 1, 30, and 90 days of dosing. Daily clinical observations, food consumption, body weights, clinical pathology, and toxicokinetics were performed. Full necropsy and ocular histopathology were also conducted."}, "[5]": {"assay": "Corneal penetration and ocular pharmacokinetics in rabbits (HPLC-ESI/MS/MS)", "assay_type": "in vivo, rabbit", "description": "Esters of lipoic acid were evaluated in rabbits for corneal penetration. Rabbits were also used to examine the metabolism, absorption, and distribution of LACE (LA prodrug) using HPLC-ESI/MS/MS (LOD>2 ng/ml)."}}, "data": [{"compound": "O=C(O)CCCCC1CCSS1", "note": "(centres unmarked) [LA, lipoic acid]", "values": [{"measurement": "concentration of maximal effect on lens protein disulfides", "setting": "lens protein disulfides", "value": 100, "unit": "µM"}, {"measurement": "EC50", "setting": "lens protein disulfides; 0-500 μM LA, read-out: [LA]50 for decrease in lens protein disulfides", "value": "50 ± 10", "unit": "µM"}, {"measurement": "concentration of maximal effect on lens elasticity", "setting": "mouse lenses (C57BL/6J)", "value": 100, "unit": "µM"}, {"measurement": "EC50", "setting": "mouse lenses (C57BL/6J); 0-500 μM LA, read-out: [LA]50 for increase in lens elasticity", "value": "50 ± 10", "unit": "µM"}]}, {"compound": "C[N+](C)(C)CCOC(=O)CCCC[C@@H]1CCSS1.[Cl-]", "note": "[LACE chloride, lipoic acid choline ester chloride]", "values": [{"measurement": "stability of LACE chloride in propylene glycol", "setting": "[1]; 3 months storage at 5° C. and 25° C.", "value": "not stable"}, {"measurement": "conversion to peak at RRT approximately 0.73", "setting": "[1]; stored at room temperature, 3 months", "value": "completely converted"}]}, {"compound": "C[N+](C)(C)CCOC(=O)CCCC[C@@H]1CCSS1", "note": "[LACE, lipoic acid choline ester]", "values": [{"measurement": "Draize Rabbit Eye test score", "setting": "[2]; 30 to 50 μL into one eye, scale 0 to 110", "value": "2.0+/−0.6"}, {"measurement": "Draize test classification", "setting": "[2]; New Zealand white rabbits", "value": "not corrosive or irritating"}, {"measurement": "stability of clear solution in neat glycerol", "setting": "[3]", "value": "stable"}, {"measurement": "Plasma levels of EV06", "setting": "[4]", "value": "at or below the limits of detection"}, {"measurement": "corneal penetration compared with lipoic acid", "setting": "[5]", "value": "improve penetration over lipoic acid"}]}]}
